Legend:
Type in all cases: functional
[1] = Cytotoxicity against human squamous cervical carcinoma cells; conditions: read-out: ED50 (the source's name)
[2] = Cytotoxicity against human colon carcinoma cells; conditions: Colon carcinoma cell, read-out: ED50 (the source's name)
[3] = Cytotoxicity against human ovarian carcinoma cells; conditions: Ovarian carcinoma cell, read-out: ED50 (the source's name)
[4] = Cytotoxicity against human nasopharyngeal carcinoma cells; conditions: Nasopharyngeal carcinoma cell, read-out: ED50 (the source's name)

Measured: EC50

CCCCCCCCCCCC(=O)O[C@H]1[C@H](O[C@@H]2[C@@H](O)[C@@H](O)[C@H](O[C@H]3[C@H](O[C@@H](CCCCC)CCCCCCCCCC(=O)OC)O[C@H](C)[C@H](O)[C@@H]3O)O[C@H]2C)O[C@@H](C)[C@H](O[C@@H]2O[C@@H](C)[C@H](O)[C@@H](O)[C@H]2O)[C@H]1O[C@@H]1O[C@@H](C)[C@H](O)[C@@H](O)[C@H]1O [PESCAPROSIDE A]
5 µg/mL: [1] | [2] | [3] | [4]

CCCCCCCCCCCC(=O)O[C@H]1[C@H](O[C@@H]2[C@H]3OC(=O)CCCCCCCCC[C@H](CCCCC)O[C@@H]4O[C@H](C)[C@H](O)[C@H](O)[C@H]4O[C@H](O[C@H]2C)[C@@H]3O)O[C@@H](C)[C@H](O[C@@H]2O[C@@H](C)[C@H](O)[C@@H](O)[C@H]2O)[C@H]1O[C@@H]1O[C@@H](C)[C@H](O)[C@@H](O)[C@H]1O [PESCAPREIN I]
5 µg/mL: [1] | [2] | [3] | [4]

CCCCCCCCCCCC(=O)O[C@H]1[C@H](O[C@@H]2[C@H]3OC(=O)CCCCCCCCC[C@H](CCCCC)O[C@@H]4O[C@H](C)[C@H](O)[C@H](O)[C@H]4O[C@H](O[C@H]2C)[C@@H]3O)O[C@@H](C)[C@H](O[C@@H]2O[C@@H](C)[C@H](OC(=O)CCCCC)[C@@H](O)[C@H]2O)[C@H]1O[C@@H]1O[C@@H](C)[C@H](O)[C@@H](O)[C@H]1O [PESCAPREIN IV]
5 µg/mL: [1] | [2] | [3] | [4]

CCCCCCCCCCCC(=O)O[C@H]1[C@H](O[C@@H]2[C@H]3OC(=O)CCCCCCCCC[C@H](CCCCC)O[C@@H]4O[C@H](C)[C@H](O)[C@H](O)[C@H]4O[C@H](O[C@H]2C)[C@@H]3O)O[C@@H](C)[C@H](O[C@@H]2O[C@@H](C)[C@H](OC(=O)[C@@H](C)CC)[C@@H](O)[C@H]2O)[C@H]1O[C@@H]1O[C@@H](C)[C@H](O)[C@@H](O)[C@H]1O [PESCAPREIN III]
5 µg/mL: [1] | [2] | [3] | [4]

CCCCCCCCCCCC(=O)O[C@H]1[C@H](O[C@@H]2[C@H]3OC(=O)CCCCCCCCC[C@H](CCCCC)O[C@@H]4O[C@H](C)[C@H](O)[C@H](O)[C@H]4O[C@H](O[C@H]2C)[C@@H]3O)O[C@@H](C)[C@H](O[C@@H]2O[C@@H](C)[C@H](OC(=O)C(C)C)[C@@H](O)[C@H]2O)[C@H]1O[C@@H]1O[C@@H](C)[C@H](O)[C@@H](O)[C@H]1O [PESCAPREIN II]
5 µg/mL: [1] | [2] | [3] | [4]

CCCCCCCCCC(=O)O[C@H]1[C@H](O[C@@H]2[C@H]3OC(=O)CCCCCCCCC[C@H](CCCCC)O[C@@H]4O[C@H](C)[C@H](O)[C@H](O)[C@H]4O[C@H](O[C@H]2C)[C@@H]3O)O[C@@H](C)[C@H](O[C@@H]2O[C@@H](C)[C@H](OC(=O)[C@@H](C)CC)[C@@H](O)[C@H]2O)[C@H]1O[C@@H]1O[C@@H](C)[C@H](O)[C@@H](O)[C@H]1O [STOLONIFERIN III]
5 µg/mL: [1] | [2] | [3] | [4]
